These results are taken from patent US20230321124A1, “ROR gamma t Inhibitors and Topical Uses Thereof” (DERMIRA, INC., priority 2020, published 2023).

This experiment concerns IL-17A protein. The experiment is described as follows: skin Resident Immune Cell Assay (sRICA), Th17 model, human skin biopsies. The format is cell-based. To be noted: Example 2, FIG. 1; 10 ul topical, overnight; media harvested 48 hours after activation; N=6. How it is done: A skin Resident Immune Cell Assay (sRICA) was used to test Compounds 1, 2 and 3 in Formulations as identified in Example 1 for reduction of IL-17A protein upregulation in the Th17 sRICA model. In this model, human surgical skin waste was cultured in a transwell system, with the dermis in contact with cell culture media and the stratum corneum exposed to air. To perform the assay, each human skin sample was defatted and dermatomed to 750 μm. Next, 8 mm punch biopsies were obtained and placed in a membrane transwell. The biopsies were prepared with a barrier ring to contain the formulation and prevent leakage of the formulation. […]
10 ul of the test solvent system was applied to topically prepared sRICA samples and allowed to penetrate the skin overnight. […] An unpaired, two-tailed students T-test was used to determined statistical significance between Th17 treated skin and treatment groups. The performance of the 3 RORγt inhibitors in Formulations representative of creams (Formulations 3-7), aqueous gels (Formulation 8), non-aqueous gels (Formulations 9-10), and ointments (Formulation 11) were evaluated.
All formulations of containing Compound 1 or Compound 2 were created at 80% saturation, except for all non-aqueous gels (NAG) in which saturation has not yet been determined (>12%) and were arbitrarily formulated at 1% or 5% (see Formulation 10 (1%) and Formulation 10 (5%) in Tables 6 and 7). […]

As to `C[C@H]1C[C@H]2[C@@H]3CCC4=CC(=O)C=C[C@]4(C)[C@@]3(F)[C@@H](O)C[C@]2(C)[C@@]1(O)C(=O)CCl` [Clobetasol], the “Th17-cocktail induced IL17A protein in culture media” value is on record as “complete suppression”.
